The subject of series [1] is MCF-7 (breast cancer) cell line. The series is described as follows: Mitogenic (MTT) assay, antiproliferative effect in MCF-7 cells. It is filed as cell-based. How it is done:
The cell culture experiments were carried out in MCF-7 (breast cancer) cell line purchased from American Type Culture Collection (ATCC, Manassas, Va.) were grown in RPMI 1640 medium (Himedia Laboratories Pvt. Ltd., Mumbai, India) supplemented with 10% fetal bovine serum (Himedia Laboratories Pvt. Ltd., Mumbai, India) and 100 μg/ml penicillin G and 100 μg/ml streptomycin (Gibco BRL, Grand island, NY) at 37° C. in a humidified and 5% CO2 atmosphere (Hera Cell, Thermo Scientific, Waltham, Mass.).
(§1) To find out the cytotoxicity of the anticancer drugs, mitogenic assay was carried out. The MCF-7 cells were seeded at 5,000 per well in 96 well plate (Corning, N.Y., USA) and kept in the incubator for 24 hours for better cell attachment. […] Glyceryl monooleate (GMO) Magnetic nanoparticles (MNPs) without drug and medium were used as respective controls. The medium was changed on 2nd and 4th days following the drug treatment; no further dose of drug was added. Viability of the cells was determined at 5th day. After the specified incubation time, 10 μl MTT (Sigma) was added, and the plates were incubated for 3 hours at 37° C. in a cell culture incubator (Hera Cell, Thermo Scientific, Waltham, Mass.), following which the intracellular formazan crystals were solubilized in dimethyl sulfoxide and the color intensity was measured at 540 nm using a microplate reader (Synergy HT, BioTek Instruments, Inc., Winooski, Vt.). The antiproliferative effect of different treatments was calculated as a percentage of cell growth with respect to respective controls.
The cell culture experiments were carried out in MCF-7 (breast cancer) cell line purchased from American Type Culture Collection (ATCC, Manassas, Va.) were grown in RPMI 1640 medium (Himedia Laboratories PVT. LTD., Mumbai, India) supplemented with 10% fetal bovine serum (Himedia Laboratories Pvt. Ltd., Mumbai, India) and 100 μg/ml penicillin G and 100 μg/ml streptomycin (Gibco BRL, Grand island, NY) at 37° C. in a humidified and 5% CO2— atmosphere (Hera Cell, Thermo Scientific, Waltham, Mass.).
as §1, with “GMO-MNPs” for “Glyceryl monooleate (GMO) Magnetic nanoparticles (MNPs)”

The conditions of series [2]: higher doses; cited from earlier work.
Another series relates to human erythrocytes. The note with it: pluronic used as emulsifying agent for amphotericin-B; cited from earlier work.
Setting [3] is: MCF-7, MTT day 5, highest concentration of the range (1000 ng/ml, printed for paclitaxel).
The mark [4] stands for this setting: MCF-7, MTT day 5, lowest concentration of the range (1 ng/ml, printed for paclitaxel).

As for `CC(=O)O[C@H]1C(=O)[C@@]2(C)[C@H]([C@H](OC(=O)c3ccccc3)[C@]3(O)C[C@H](OC(=O)[C@H](O)[C@@H](NC(=O)c4ccccc4)c4ccccc4)C(C)=C1C3(C)C)[C@]1(OC(C)=O)CO[C@@H]1C[C@@H]2O` [paclitaxel, Paclitaxel], the values for the cell viability percentage result in series [1] (setting [3]) and in series [1] (setting [4]) were “about 30%” and 95%, respectively.

Regarding `CO[C@H]1C[C@@H]2CC[C@@H](C)[C@@](O)(O2)C(=O)C(=O)N2CCCC[C@H]2C(=O)O[C@H]([C@H](C)C[C@@H]2CC[C@@H](O)[C@H](OC)C2)CC(=O)[C@H](C)/C=C(\C)[C@@H](O)[C@@H](OC)C(=O)[C@H](C)C[C@H](C)/C=C/C=C/C=C/1C` [rapamycin], the 50% inhibitory concentration (IC50) (in general, the concentration needed to halve the response being measured) in series [1] (Homo sapiens, MCF7, 120 h, MCF-7 cells, MTT assay on day 5, medium changed on days 2 and 4) stood at 0.0588 µg/mL. Besides, the cell viability percentage is on record as 37% in series [1] (setting [3]) and 65% in series [1] (setting [4]).

In the case of Pluronic F-127, in series [2], the “effect on cholesterol and triglycerides in the blood plasma” value is “elevation of cholesterol and triglycerides in the blood plasma”. Moreover, the “concentration with detectable cell lysis of human erythrocytes” value in the series on human erythrocytes was 16000 ng/mL.

Source of the values: patent publication US9271934B2, “Water dispersible glyceryl monooleate magnetic nanoparticle formulation” (Institute of Life Sciences, priority 2009, dated 2016).
